These results are taken from patent US12129261B2, “Crystalline forms of a MCL-1 inhibitor, a process for their preparation and pharmaceutical compositions containing them” (LES LABORATOIRES SERVIER, priority 2018, dated 2024).

Assay type in all cases: physicochemical
One series in a line: Solubility in water. To be noted: pH 7.5, water.
Series [1] in a line: Water content by coulometric titration. Here is the method:
The water content of crystalline Form M of Compound A obtained according to any one of the processes of Examples 1 to 6 was determined by coulometric titration using a Metrohm Coulometer composed of a 774 oven sample processor, a 774 SC controller, 831 KF coulometer and a 846 Dosing interface with Tiamo 1.2 software About 10 mg of accurately weighed micronized drug substance were introduced in vials heated for 10 minutes at 140° C. The water content of the powder was also determined by the coulometric method.

Series [2] can be described thus: Stability studies of crystalline Form M (storage, XRPD and post-storage HPLC). To be noted: for stability towards temperature and humidity: 6-month storage period under various conditions. The method, then:
For all storage conditions and storage periods, 20 mg of crystalline Form M of Compound A obtained according to any one of the processes of Examples 1 to 6 were introduced in a 30-mL vial for post-storage HPLC analysis (packaging: PVO=Opened glass container; VRAC PA=Double polyethylene bag).

A short description of series [3]: Hygroscopicity by dynamic vapor sorption (DVS). The method, then:
The hygroscopicity of crystalline Form M of Compound A obtained according to any one of the processes of Examples 1 to 6 was assessed using the dynamic vapor sorption (DVS) technique. 5 to 10 mg of the drug substance test sample were accurately weighed into a DVS sample pan working at 25° C. under controlled humidity. The mass of the sample was recorded at 50% RH (relative humidity) until reaching a stable value. Thereafter the mass variation was recorded between 50% RH and 90% RH at a rate of 10% per hour. Mass variations were also recorded between 90% RH and 0% RH and from 0% RH back to 50% RH. The relative humidity was maintained constant when it reached either 0 or 90% RH until the mass variation was less than 0.002% per minute within a limit of lime of 15 hours. An increase in sample mass of approximately 0.4% was recorded by DVS analysis when a sample was exposed to relative humidities from 50% to 90% at 25° C.

A short description of series [4]: Stability studies of crystalline Form A (storage, post-storage HPLC). To be noted: for (i) Polymorphic stability / (ii) chemical stability, drug substance content determined by LC: polyethylene bag in sealed quadruple laminated foil bag. The text has this:
For all storage conditions and storage periods, 1.2 g of crystalline Form A of Compound A obtained according to the process of Example 15 were introduced in a specific packaging for post-storage HPLC analysis.

Setting [5] is: 25° C. 60% RH, VRAC PA, 12 months.
Where [6] appears, read: 30° C. 65% RH, VRAC PA, 12 months.
Setting [7] is: 40° C. 75% RH, VRAC PA, 3 months.
[8] abbreviates: 40° C. 75% RH, VRAC PA, 6 months.
Where [9] appears, read: 25° C./60% RH, 24 months of storage.
[10] abbreviates: 30° C./75% RH, 1 month of storage.
[11] abbreviates: 40° C./75% RH, 6 months of storage.
[12] abbreviates: 50° C./75% RH, 1 month of storage.

Bounds are passed on as bounds.

Compound `COc1ccccc1-c1nccc(COc2ccccc2CC(Oc2ncnc3sc(-c4ccc(F)cc4)c(-c4ccc(OCCN5CCN(C)CC5)c(Cl)c4C)c23)C(=O)O)n1` [Compound A, (2R)-2-{[(5Sa)-5-{3-chloro-2-methyl-4-[2-(4-methylpiperazin-1-yl)ethoxy]phenyl}-6-(4-fluorophenyl)thieno[2,3-d]pyrimidin-4-yl]oxy}-3-(2-{[2-(2-methoxyphenyl)pyrimidin-4-yl]methoxy}phenyl)propanoic acid] had a solubility in “Solubility in water” below 1 µg/mL.

With `COc1ccccc1-c1nccc(COc2ccccc2CC(Oc2ncnc3sc(-c4ccc(F)cc4)c(-c4ccc(OCCN5CCN(C)CC5)c(Cl)c4C)c23)C(=O)O)n1` (centres unmarked) [Form MH, 2-{[5-{3-Chloro-2-methyl-4-[2-(4-methylpiperazin-1-yl)ethoxy]phenyl}-6-(4-fluorophenyl)thieno[2,3-d]pyrimidin-4-yl]oxy}-3-(2-{[2-(2-methoxyphenyl)pyrimidin-4-yl]methoxy}phenyl)propanoic acid], in series [1] (coulometric method, powder after maturation in water), the water content came out at 29.3%.

The compound `COc1ccccc1-c1nccc(COc2ccccc2CC(Oc2ncnc3sc(-c4ccc(F)cc4)c(-c4ccc(OCCN5CCN(C)CC5)c(Cl)c4C)c23)C(=O)O)n1` (centres unmarked) [crystalline Form M of Compound A, 2-{[5-{3-chloro-2-methyl-4-[2-(4-methylpiperazin-1-yl)ethoxy]phenyl}-6-(4-fluorophenyl)thieno[2,3-d]pyrimidin-4-yl]oxy}-3-(2-{[2-(2-methoxyphenyl)pyrimidin-4-yl]methoxy}phenyl)propanoic acid] registered a water content in series [1] (vials heated for 10 minutes at 140° C.) of 0.1 % in weight. Moreover, the “stability towards temperature and humidity” value is given as “very stable” in series [2] and “remains stable” in series [2] (listed as Crystalline Form M of Compound A). The stability on storage entry in series [2] (12-month storage period under 25° C./60% RH or 30° C./65% RH) is recorded as “remains stable”. Moreover, the “(ii) chemical stability, drug substance content determined by LC” value (“(ii) chemical stability” below) is “(ii) 100.0% m/m” in series [2] (25° C. 60% RH, VRAC PA, 3 months); “(ii) 99.7% m/m” in series [2] (25° C. 60% RH, VRAC PA, 6 months); “(ii) 98.9% m/m” in series [2] (setting [5]); “(ii) 99.7% m/m” in series [2] (25° C. 90% RH, PVO, 3 months); “(ii) 100.0% m/m” in series [2] (25° C. 90% RH, PVO, 6 weeks); “(ii) 99.6% m/m” in series [2] (30° C. 65% RH, VRAC PA, 3 months). The “(ii) chemical stability” value was “(ii) 100.0% m/m” in series [2] (30° C. 65% RH, VRAC PA, 6 months); “(ii) 98.8% m/m” in series [2] (setting [6]); “(ii) 99.9% m/m” in series [2] (setting [7]); “(ii) 100.0% m/m” in series [2] (setting [8]); “(ii) 100.1% m/m” in series [2] (50° C. 75% RH, PVO, 3 months); “(ii) 100.2% m/m” in series [2] (50° C. 75% RH, PVO, 6 weeks). Also, the “(i) Polymorphic stability” value is recorded as “(i) Form M” in series [2] (setting [5]); “(i) Form M” in series [2] (25° C. 90% RH, PVO, 3 months); “(i) Form M” in series [2] (25° C. 90% RH, PVO, 6 weeks); “(i) Form M” in series [2] (setting [6]); “(i) Form M” in series [2] (setting [7]); “(i) Form M” in series [2] (setting [8]). Also, the “(i) Polymorphic stability” value in series [2] (50° C. 75% RH, PVO, 3 months) is listed as “(i) Form M”; in series [2] (50° C. 75% RH, PVO, 6 weeks), “(i) Form M”. In addition, the “hygroscopicity according to the European Pharmacopoeia” value in series [3] is listed as “slightly hygroscopic”. Further, in series [3] (DVS cycle 50-90-0-50% RH), the “change to the crystalline form in X-ray powder diffractogram after water sorption/desorption/sorption cycle” value is reported as “no change”. The “increase in sample mass (DVS)” value in series [3] (between 0% to 50% RH, 25° C.) was “approximately 0.1%”; in series [3] (relative humidities from 50% to 90% at 25° C.), “approximately 0.4%”. The “decrease in sample mass (DVS)” value in series [3] (between 90% to 0% RH, 25° C.) is recorded as “approximately 0.5%”.

Regarding `COc1ccccc1-c1nccc(COc2ccccc2CC(Oc2ncnc3sc(-c4ccc(F)cc4)c(-c4ccc(OCCN5CCN(C)CC5)c(Cl)c4C)c23)C(=O)O)n1` (centres unmarked) [crystalline Form A of Compound A, 2-{[5-{3-Chloro-2-methyl-4-[2-(4-methylpiperazin-1-yl)ethoxy]phenyl}-6-(4-fluorophenyl)thieno[2,3-d]pyrimidin-4-yl]oxy}-3-(2-{[2-(2-methoxyphenyl)pyrimidin-4-yl]methoxy}phenyl)propanoic acid], in series [4] (24-month storage period under 25° C./60% RH), the stability on storage entry is listed as “remains stable”. The “(i) Polymorphic stability” value in series [4] (setting [9]), in series [4] (setting [10]), in series [4] (setting [11]) and in series [4] (setting [12]) was “(i) Form A” each time. Moreover, the “(ii) chemical stability” value in series [4] (setting [9]) was “(ii) 98.8% after % m/m”; in series [4] (setting [10]), “(ii) 99.3% after % m/m”; in series [4] (setting [11]), “(ii) 99.5% after % m/m”; in series [4] (setting [12]) it was “(ii) 99.3% after % m/m”. Besides, the “stability towards temperature and humidity” value in series [4] (several months storage period under more severe conditions) is given as “still remains stable”.

For orientation: solubility means the dissolved amount per volume that the medium holds. Higher therefore signals a readily soluble substance.
